Test results published in patent US6916921B2, “Steroid compounds, use of these compounds for the preparation of meiosis-regulating medicaments and method for the preparation of these compounds” (Schering AG, priority 2001, dated 2005).

How the values were obtained:
[1] = system: cumulus enclosed mouse oocytes; assay: Mouse oocyte assay: activation of meiosis in cumulus enclosed oocytes in Hx-medium; assay type: cell-based; conditions: CEO in Hx-medium, 22 hours culture
Protocol: Testing of Meiosis-Activating Substances in the Mouse Oocyte Assay
Oocytes were obtained from immature female mice (C57BI/6J×DBA/2J F1-hybrids, Bomholtgaard, Denmark) weighing 13-16 grams, that were kept under controlled lighting and temperature. The mice received an intra-peritoneal injection of 0.2 ml gonadotropins (containing 10 IU PMSG, pregnant mare serum gonadotropin, Sigma Cat. No. G-4877) and 48 hours later the animals were killed by cervical dislocation.
Collection and Culture of Oocytes
The ovaries were dissected out and the oocytes were isolated in Hx-medium (see below) under a stereo microscope by manual rupture of the follicles using a pair of 27 gauge needles. Spherical, cumulus enclosed oocytes (CEO) displaying an intact germinal vesicle (GV) were placed in α-minimum essential medium (α-MEM without ribonucleosides, Gibco BRL, Cat. No. 22561) supplemented with 3 mM hypoxanthine (Sigma Cat. No. H-9377), 8 mg/ml Human Serum Albumin (HSA, State Serum Institute, Denmark), 0,23 mM pyruvate (Sigma, Cat. No. S-8636), 2 mM glutamine (Flow Cat. No. 16-801), 100 IU/ml penicillin and 100 μg/ml streptomycin (Flow Cat No. 16-700). This medium was designated Hx-medium.
The oocytes were rinsed three times in Hx-medium and cultured in 4-well multidishes (Nunclon, Denmark) in which each well contained 0.4 ml of Hx-medium and approx. 25 oocytes. One control (i.e. approx. 25 oocytes cultured in Hx-medium with no addition of test compound) was always run simultaneously with the test cultures, which were made with different concentrations of the compounds to be tested. The cultures were performed at 37° C. and 100% humidity with 5% CO2 in air. The culture time was 22 hours.
(§1) Oocytes arrested in meiosis are characterized by an intact nucleus with a prominent nucleolus, known as germinal vesicle (GV). Upon reinitiation of meiosis the nucleolus and the nuclear envelope disappear and this is characterized by a breakdown of the GV, which than is called germinal vesicle breakdown (GVB). Some hours later the oocyte complete a reductional division and elicit the first so called polar body (PB).
By the end of the culture period, the number of oocytes with germinal vesicle (GV) or germinal vesicle breakdown (GVB) and those with polar body (PB) was counted using a stereo microscope or an inverted microscope with differential interference contrast equipment. The percentage of oocytes with GVB per total number of oocytes and the percentage of oocytes with PB per total number of oocytes was calculated in the test cultures and compared to the control culture.

[2] = system: mouse preantral follicles; assay: Mouse follicular culture system: activation of oocyte maturation; assay type: cell-based; conditions: for Activation [%] GVB / Follicles [n] GV / Follicles [n] GVB: added day 2 and 3, read at day 4
Protocol: Testing of Meiosis-Activating Substances in the Mouse Follicular Culture System
Follicles were obtained from 19-21 day-old immature female mice (C57BI/6J×CBA/J), that were kept under controlled lighting and temperature.
Collection of Serum and Culture of Follicles
Animals were anesthetized with ether, and blood was collected by means of eye extraction. After clotting, blood was centrifuged for 15 min at 4000×g, and serum was collected and stored at −20° C. until use. Ovaries were removed and placed in Leibovitz L-15 medium (Gibco Cat. No. 41300) supplemented with 1 mmol glutamine l^−1, 3 mg BSA ml^−1, 5 μg human transferrin ml^−1 (without iron), 5 μg insulin ml^−1 (culture-grade chemicals, Sigma, St. Louis, Mo.) at 37 °C.
Preantral follicles with a diameter of 170-190 μm were isolated mechanically with two 27-gauge needles attached to 1 ml syringe. They were placed and washed thereafter (3 times) in 4-well culture plates (Nunclon, Denmark) in α-minimum essential medium (α-MEM; Gibco Cat. No. 11900) supplemented with 2 mmol glutamine l^−1, 10 μg transferrin ml^−1 and 10 μg insulin ml and with 3 mg BSA ml^−1.
Follicles of 170-190 μm with normal morphological appearence, i.e. a central spherical oocyte, high density of granulosa cells, and a theca layer enclosing the entire follicle, were selected and individually cultured in 96-well culture plate (Nunclon, Denmark) inserts with 40 μl α-MEM culture medium supplemented with 50 μl immature mouse serum ml^−1, 5 μg insulin ml^−1, 2 mmol glutamine l^−1, 10 μg human transferrin ml^−1 and 0.2 IU FSH (Gonal F, Serono, Solna, Sweden). Without any oil cover follicles were cultured in a humidified incubator gassed with 5% CO2 in air at 37° C.
Start of culture was defined as day 0. Culture medium was exchanged every other day. The diameter of the follicles was measured each day using ×100 magnification and a calibrated micrometer. In addition, the survival rate of the follicles was checked by evaluation of degeneration (darkening of the follicle) and bursting (loss of the oocyte). The culture time was 4 days.
At day 2 and day 3 of culture test compound or vehicle at a volume of 1.72 μl was added to the culture medium. Test compounds were dissolved in ethanol (vehicle).
as §1, with “then” for “than”, “(GVB).” for “(GVB). Some hours later the oocyte complete a reductional division and elicit the first so called polar body (PB).”
At day 4, by the end of the culture period, follicles were checked for resumption of meiosis. The number of follicles having oocytes with germinal vesicle (GV) or germinal vesicle breakdown (GVB) was counted using a stereo microscope or an inverted microscope with differential interference contrast equipment. The percentage of follicles with GVB per total number of follicles was calculated in the test cultures and compared to the vehicle control culture.

rat oocytes = conditions: micromolar concentrations; rat CEO and DO arrested by IBMX; cited from earlier work

C[C@H](CN1CCCCC1)[C@H]1CC=C2C3=C(CC[C@@]21C)[C@@]1(C)CC[C@H](O)C(C)(C)[C@@H]1CC3 [Example 1, (20S)-20-[(piperidin-1-yl)methyl]-4,4-dimethyl-5α-pregna-8,14-dien-3β-ol]
Activation [%] GVB + PB ([1]; 0,1 μM): 39%
Oocytes [n] GV ([1]; 0,1 μM): 14 n
Oocytes [n] GVB ([1]; 0,1 μM): 7 n
Oocytes [n] PB ([1]; 0,1 μM): 2 n
Activation [%] GVB + PB ([1]; 1 μM): 75%
Oocytes [n] GV ([1]; 1 μM): 6 n
Oocytes [n] GVB ([1]; 1 μM): 12 n
Oocytes [n] PB ([1]; 1 μM): 6 n
Activation [%] GVB + PB ([1]; 10 μM): 95%
Oocytes [n] GV ([1]; 10 μM): 1 n
Oocytes [n] GVB ([1]; 10 μM): 14 n
Oocytes [n] PB ([1]; 10 μM): 7 n
Activation [%] GVB ([2]; 1 μM): 78%
Follicles [n] GV ([2]; 1 μM): 2 n
Follicles [n] GVB ([2]; 1 μM): 7 n
Activation [%] GVB ([2]; 3 μM): 100%
Follicles [n] GV ([2]; 3 μM): 0 n
Follicles [n] GVB ([2]; 3 μM): 9 n
Activation [%] GVB ([2]; 10 μM): 100%
Follicles [n] GV ([2]; 10 μM): 0 n
Follicles [n] GVB ([2]; 10 μM): 8 n

CC(C)=CCC[C@@H](C)[C@H]1CC=C2C3=C(CC[C@@]21C)[C@@]1(C)CC[C@H](O)C(C)(C)[C@@H]1CC3 [FF-MAS, 4,4-dimethyl-5α-cholesta-8,14,24-trien-3β-ol, reference compound]
Activation [%] GVB + PB ([1]; 10 μM): 46%
Oocytes [n] GV ([1]; 10 μM): 13 n
Oocytes [n] GVB ([1]; 10 μM): 6 n
Oocytes [n] PB ([1]; 10 μM): 5 n
Activation [%] GVB ([2]; 10 μM): 0%
Follicles [n] GV ([2]; 10 μM): 9 n
Follicles [n] GVB ([2]; 10 μM): 0 n
induction of maturation / activation of meiosis in a follicle culture system ([2]; follicle culture system): not able to induce maturation
resumption of meiosis (rat oocytes): able to induce resumption of meiosis in a dose-dependent manner
